As a reminder, the IC50 is the concentration that gives 50% inhibition. Higher therefore signals a need for much substance.

Consider 34 molecules from patent US20200317660A1, “Quinazolinone Compound and Application Thereof” (LUOXIN PHARMACEUTICAL (SHANGHAI) CO., LTD., priority 2017, published 2020).

One assay has as its target T1, PI3Kα (Homo sapiens, UniProt P42336).
T1 construct: purchased Millipore 14-602-K
Description: In vitro test of enzyme activity (ADP-Glo lipokinase), PI3K alpha. Format: biochemical. To be noted: 40 μM ATP, 50 μM PIP2:3PS, 120 min. How it is done:
(§1) 1. In Vitro Test of Enzyme Activity
(§2) The lipokinase reaction was carried out under the conditions of a suitable substrate and ATP, followed by two steps to detect the kinase activity with the ADP-Glo™ kit. The first step was terminating the kinase reaction, wherein the remaining ATP was completely removed and only ADP was left; the second step was adding kinase detection reagents to convert ADP to ATP, accompanied by luciferin/luciferase reaction. Finally, the output value of fluorescence value was converted into kinase activity.
(§3) Experimental materials and equipments:
(§4) 2. Kit: ADP-Glo™ Lipokinase and PIP2:3PS Kit (Promega # V1792)
(§5) The kit contains: 1 mM PIP2:3PS, 10× lipid dilution buffer, 1 M magnesium chloride, 10 mM ATP, 10 mM ADP, ADP-Glo reagent, detection buffer and detection substrate.
(§6) 3. Reaction plate: OptiPlate-384, white and transparent (PerkinElmer #6007299).
(§7) 1. 10× reaction buffer: 500 mM HEPES, pH 7.5, 500 mM NaCl, 9 mM MgCl2; BSA: 10% stock solution, homemade.
(§8) 2. Final test system conditions: 1× reaction system: 50 mM HEPES, 50 mM NaCl, 3 mM MgCl2, 0.01% BSA (freshly prepared on the day of the experiment), 1% DMSO (v/v)+/−compound
(§9) 3. Reaction system: 3 μL mixture of the enzyme and the substrate (1:1)+2 μL ATP/MgCl2 mixture+5 μL ADP-Glo reagent+10 μL detection reagent.
(§10) The detailed experimental procedures are as follows:
(§11) 1. Compound dilution: 50 nL 100×compound/DMSO was transferred to the test well plate with Echo. • For PI3Kα, the compound was diluted three-fold from the highest concentration of 0.111 mM for a total of 10 concentrations. • For PI3Kβ/PI3Kδ/PI3Kγ, the compound was three-fold diluted from the highest concentration of 1.11 mM for a total of 10 concentrations.
(§12) (1) The compound to be tested was prepared and 50 nL of 100 plus compound solution or DMSO was added to the corresponding well plate.
(§13) (2) 3.33 plate reaction buffer was prepared.
(§14) (3) 3.33 solution PIP2:3PS was prepared, PIP2:3PS was thawed for at least 1 minute before use.
(§15) (4) 2.5 mM containing 5.25 mM MgCl2 was prepared.
(§16) (5) 3.33 PI3Kα/PI3Kβ/PI3Kδ/PI3Kγ solution was prepared.
(§17) (6) The lipokinase solution and the PIP2:3PS solution were mixed in a volume ratio of 1:1.
(§18) (7) 3.33: lipokinase buffer and PIP2:3PS solution were mixed in a volume ratio of 1:1.
(§19) (8) 3 μL of buffer solution and PIP2:3PS were added to the first and the second columns of the well plate.
(§20) (9) 3 μL of the mixed solution of the enzyme and PIP2:3PS was added to the wells except the first and the second columns, centrifuged for 10 seconds (1000 rpm) and incubated at 23° C. for 20 minutes.
(§21) (10) 2 μL […] was added and well was shaken.
(§22) (11) The well plate was covered and shaken for about 30 s, then the well plate was incubated at 23° C. for 2 hours.
(§23) (12) 5 μL of ADP-Glo reagent containing 10 mM MgCl2 was added.
(§24) (13) The well plate was centrifuged at 1000 rpm for 10 seconds, and the well plate was then covered, shaken for about 30 seconds, and incubated at 23° C. for 60 minutes.
(§25) (14) 10 μL kinase detection reagent was added.
(§26) (15) The well plate was centrifuged at 1000 rpm for 10 seconds, and then incubated at 23° C. for 60 minutes.
(§27) (16) The fluorescence value was measured on the Envision instrument.
In general terms: ADP-Glo first removes unused ATP, then detects ADP through luciferase.

In another assay the target is T2, PI3Kβ (Homo sapiens, UniProt P42338).
T2 construct: purchased Promega V1751
Description: In vitro test of enzyme activity (ADP-Glo lipokinase), PI3K beta. Format: biochemical. To be noted: 40 μM ATP, 50 μM PIP2:3PS, 120 min. How it is done: as §1, §2, §3, §4, §5, §6, §7, §8, §9, §10, §11, §12, §13, §14, §15, §16, §17, §18, §19, §20, §21, §22, §23, §24, §25, §26, §27

T2 sequence (P42338 whole entry): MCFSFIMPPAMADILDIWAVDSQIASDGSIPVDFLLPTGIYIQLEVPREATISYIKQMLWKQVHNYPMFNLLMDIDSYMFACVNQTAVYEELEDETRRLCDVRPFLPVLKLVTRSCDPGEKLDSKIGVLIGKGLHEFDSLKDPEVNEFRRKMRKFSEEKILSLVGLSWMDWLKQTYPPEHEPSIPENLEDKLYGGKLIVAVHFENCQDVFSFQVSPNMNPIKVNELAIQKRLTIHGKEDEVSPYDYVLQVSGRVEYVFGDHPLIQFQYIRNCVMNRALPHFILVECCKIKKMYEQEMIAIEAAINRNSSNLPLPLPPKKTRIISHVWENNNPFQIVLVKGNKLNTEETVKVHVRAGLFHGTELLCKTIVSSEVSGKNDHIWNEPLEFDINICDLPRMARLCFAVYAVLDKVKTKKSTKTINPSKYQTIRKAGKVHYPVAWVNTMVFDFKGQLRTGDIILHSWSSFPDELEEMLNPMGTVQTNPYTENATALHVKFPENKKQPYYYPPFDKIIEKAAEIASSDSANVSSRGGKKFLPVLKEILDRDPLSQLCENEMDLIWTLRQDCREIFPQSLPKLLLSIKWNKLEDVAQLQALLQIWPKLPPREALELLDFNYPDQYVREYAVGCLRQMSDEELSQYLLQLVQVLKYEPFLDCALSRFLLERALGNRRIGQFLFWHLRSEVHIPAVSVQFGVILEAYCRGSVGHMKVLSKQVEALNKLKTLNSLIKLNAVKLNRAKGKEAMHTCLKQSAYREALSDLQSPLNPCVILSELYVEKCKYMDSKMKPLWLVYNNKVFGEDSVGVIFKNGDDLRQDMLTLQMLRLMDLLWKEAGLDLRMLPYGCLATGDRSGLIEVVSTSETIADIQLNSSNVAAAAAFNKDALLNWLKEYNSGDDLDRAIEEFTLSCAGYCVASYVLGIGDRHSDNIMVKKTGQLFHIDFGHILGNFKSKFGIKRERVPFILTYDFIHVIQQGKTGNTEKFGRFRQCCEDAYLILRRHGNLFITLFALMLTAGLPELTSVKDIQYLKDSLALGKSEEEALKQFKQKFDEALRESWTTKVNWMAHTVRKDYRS
T2 sequence (P27986 whole entry partner): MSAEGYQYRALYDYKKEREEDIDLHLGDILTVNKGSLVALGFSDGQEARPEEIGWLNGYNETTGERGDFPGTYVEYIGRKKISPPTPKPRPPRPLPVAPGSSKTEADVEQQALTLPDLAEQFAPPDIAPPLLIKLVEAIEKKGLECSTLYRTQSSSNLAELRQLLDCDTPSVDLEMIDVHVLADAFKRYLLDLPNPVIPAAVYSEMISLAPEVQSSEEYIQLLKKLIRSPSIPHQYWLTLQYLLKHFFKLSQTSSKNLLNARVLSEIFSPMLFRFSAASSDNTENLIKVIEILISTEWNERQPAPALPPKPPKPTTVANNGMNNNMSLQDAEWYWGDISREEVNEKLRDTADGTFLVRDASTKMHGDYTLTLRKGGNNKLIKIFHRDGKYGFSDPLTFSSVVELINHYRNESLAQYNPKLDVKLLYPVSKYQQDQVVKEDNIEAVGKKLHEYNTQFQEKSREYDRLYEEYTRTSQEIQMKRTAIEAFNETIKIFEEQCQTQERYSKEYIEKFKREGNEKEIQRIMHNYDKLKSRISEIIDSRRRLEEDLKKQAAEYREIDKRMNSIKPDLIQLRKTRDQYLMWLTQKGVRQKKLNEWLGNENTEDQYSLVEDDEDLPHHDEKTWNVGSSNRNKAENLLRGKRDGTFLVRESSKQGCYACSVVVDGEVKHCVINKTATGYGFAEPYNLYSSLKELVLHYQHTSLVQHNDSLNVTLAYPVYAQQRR
T1 sequence (P42336 whole entry): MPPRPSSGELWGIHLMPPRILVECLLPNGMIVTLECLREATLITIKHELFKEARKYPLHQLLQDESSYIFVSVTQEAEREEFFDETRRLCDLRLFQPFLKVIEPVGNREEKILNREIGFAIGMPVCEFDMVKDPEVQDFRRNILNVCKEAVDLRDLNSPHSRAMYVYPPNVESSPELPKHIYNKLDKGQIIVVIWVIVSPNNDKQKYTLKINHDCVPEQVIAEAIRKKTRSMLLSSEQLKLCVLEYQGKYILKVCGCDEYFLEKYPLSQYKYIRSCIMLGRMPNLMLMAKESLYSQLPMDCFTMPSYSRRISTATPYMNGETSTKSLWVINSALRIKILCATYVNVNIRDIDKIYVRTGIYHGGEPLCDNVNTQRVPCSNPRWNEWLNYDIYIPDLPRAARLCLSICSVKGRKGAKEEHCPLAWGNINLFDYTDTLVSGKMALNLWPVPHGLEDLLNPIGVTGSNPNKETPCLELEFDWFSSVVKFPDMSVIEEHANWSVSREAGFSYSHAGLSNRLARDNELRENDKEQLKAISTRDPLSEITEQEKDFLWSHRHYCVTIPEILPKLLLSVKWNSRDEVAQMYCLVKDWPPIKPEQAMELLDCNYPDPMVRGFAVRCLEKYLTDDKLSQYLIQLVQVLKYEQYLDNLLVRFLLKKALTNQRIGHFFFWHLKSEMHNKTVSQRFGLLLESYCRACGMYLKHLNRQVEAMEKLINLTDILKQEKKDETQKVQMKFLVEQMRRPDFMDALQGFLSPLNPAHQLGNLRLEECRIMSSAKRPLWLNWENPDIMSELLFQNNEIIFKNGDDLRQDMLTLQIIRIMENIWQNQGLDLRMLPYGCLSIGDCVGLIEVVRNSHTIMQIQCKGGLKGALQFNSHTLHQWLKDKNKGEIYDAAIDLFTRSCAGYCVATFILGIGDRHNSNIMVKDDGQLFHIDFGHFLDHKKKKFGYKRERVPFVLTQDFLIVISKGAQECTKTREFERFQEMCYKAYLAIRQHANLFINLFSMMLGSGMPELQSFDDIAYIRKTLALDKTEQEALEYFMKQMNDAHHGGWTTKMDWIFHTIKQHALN
T1 sequence (P27986 whole entry partner): as the sequence (P27986 whole entry partner) above

As to `CNC(=O)C(C)Cn1cnc2ccc(-c3cnc(OC)c(NS(=O)(=O)c4ccc(F)c(C#N)c4)c3)cc2c1=O` (single isomer, unassigned) [WX156], the concentration for half-maximal inhibition (IC50) at PI3Kα turned out to be 3.56 nM; at PI3Kβ it was 498 nM.

Consider `CNC(=O)[C@H](C)Cn1cnc2ccc(-c3cnc(OC)c(NS(=O)(=O)c4cc(Cl)ccc4Cl)c3)cc2c1=O` [WX182], for which the IC50 was 1.47 nM against PI3Kα and 73.3 nM against PI3Kβ.

For `CNC(=O)C(C)Cn1cnc2ccc(-c3cnc(OC)c(NS(=O)(=O)c4ccc(C)cc4C)c3)cc2c1=O` (single isomer, unassigned) [WX092], the half-maximal inhibitory concentration (IC50) at PI3Kα was 6.47 nM; against PI3Kβ, 250 nM.

With `CNC(=O)C(C)Cn1cnc2ccc(-c3cnc(OC)c(NS(=O)(=O)c4cc(F)cc(F)c4)c3)cc2c1=O` (single isomer, unassigned) [WX193], the results for the IC50 on PI3Kα and at PI3Kβ were 12.6 nM and 451 nM, respectively.

For the molecule `CNC(=O)[C@H](C)Cn1cnc2ccc(-c3cnc(OC)c(NS(=O)(=O)c4ccc(Cl)c(C)c4)c3)cc2c1=O` [WX190], the IC50 is 13.2 nM against PI3Kα and 205 nM against PI3Kβ.

With `CNC(=O)C(C)Cn1cnc2ccc(-c3cnc(OC)c(NS(=O)(=O)c4ccc(F)c(C#N)c4)c3)cc2c1=O` (single isomer, unassigned) [WX157], the IC50 at PI3Kα is 5.81 nM; on PI3Kβ it was 287 nM.

Consider `CNC(=O)[C@@H](C)Cn1cnc2ccc(-c3cnc(OC)c(NS(=O)(=O)c4ccccc4F)c3)cc2c1=O` [WX205], for which the IC50 on PI3Kα was 3.7 nM; on PI3Kβ, 97.3 nM.

On to `CNC(=O)C(C)Cn1cnc2ccc(-c3cnc(OC)c(NS(=O)(=O)c4ccc(F)c(Cl)c4)c3)cc2c1=O` (single isomer, unassigned) [WX167], for which the IC50 against PI3Kα was found to be 13 nM; against PI3Kβ it was 159 nM.

On to `CNC(=O)C(C)Cn1cnc2ccc(-c3cnc(OC)c(NS(=O)(=O)c4cc(Cl)ccc4C)c3)cc2c1=O` (single isomer, unassigned) [WX221], for which the IC50 is 4.61 nM at PI3Kα and 162 nM on PI3Kβ.

Turning to `CNC(=O)C(C)Cn1cnc2ccc(-c3cnc(OC)c(NS(=O)(=O)c4ccc(C)c(Cl)c4)c3)cc2c1=O` (single isomer, unassigned) [WX161], the IC50 against PI3Kα is 8.92 nM; on PI3Kβ, 153 nM.

For `CNC(=O)C(C)Cn1cnc2ccc(-c3cnc(OC)c(NS(=O)(=O)c4ccc(F)cc4)c3)cc2c1=O` (single isomer, unassigned) [WX088], the IC50 was 8 nM on PI3Kα and 211 nM on PI3Kβ.

As for `CNC(=O)C(C)Cn1cnc2ccc(-c3cnc(OC)c(NS(=O)(=O)c4ccc(F)c(Cl)c4)c3)cc2c1=O` (single isomer, unassigned) [WX166], the IC50 against PI3Kα was 5.78 nM; against PI3Kβ, 222 nM.

`COc1ncc(-c2ccc3ncn(CCCC(=O)N4CCCC4)c(=O)c3c2)cc1NS(=O)(=O)c1ccc(F)cc1Cl` [WX199]: the IC50 against PI3Kα was 4.86 nM; against PI3Kβ, 199 nM.

On to `CNC(=O)C(C)Cn1cnc2ccc(-c3cnc(OC)c(NS(=O)(=O)c4ccc(Cl)cc4C)c3)cc2c1=O` (single isomer, unassigned) [WX217], for which the IC50 on PI3Kα stood at 3.47 nM; against PI3Kβ it was 269 nM.

Consider `CNC(=O)[C@@H](C)Cn1cnc2ccc(-c3cnc(OC)c(NS(=O)(=O)c4cc(C)cc(Cl)c4)c3)cc2c1=O` [WX184], for which the IC50 was found to be 8.14 nM against PI3Kα and 192 nM on PI3Kβ.

Consider `CNC(=O)C(C)Cn1cnc2ccc(-c3cnc(OC)c(NS(=O)(=O)c4cc(C(F)(F)F)cc(C(F)(F)F)c4)c3)cc2c1=O` (single isomer, unassigned) [WX104], for which the IC50 on PI3Kα was 38.5 nM; at PI3Kβ, 1950 nM.

For `CNC(=O)C(C)Cn1cnc2ccc(-c3cnc(OC)c(NS(=O)(=O)c4ccc(C)c(Cl)c4)c3)cc2c1=O` (single isomer, unassigned) [WX160], the IC50 was 11.2 nM against PI3Kα and 2100 nM against PI3Kβ.

For `COC(=O)C(C)Cn1cnc2ccc(-c3cnc(OC)c(NS(=O)(=O)c4ccc(F)cc4Cl)c3)cc2c1=O` (single isomer, unassigned) [R005, reference compound], the IC50 is 5.84 nM against PI3Kα and 100 nM at PI3Kβ.

Regarding `CNC(=O)C(C)Cn1cnc2ccc(-c3cnc(C(F)(F)F)c(NS(=O)(=O)c4ccc(F)cc4Cl)c3)cc2c1=O` (centres unmarked) [WX084], the figures for the IC50 on PI3Kα and at PI3Kβ were 0.56 nM and 110 nM, respectively.

As for `CCOC(=O)CCCn1cnc2ccc(-c3cnc(OC)c(NS(=O)(=O)c4ccc(F)cc4Cl)c3)cc2c1=O` [R001, reference compound], the IC50 worked out at 3.77 nM against PI3Kα and 100 nM against PI3Kβ.

For `CNC(=O)C(C)Cn1cnc2ccc(-c3cnc(OC)c(NS(=O)(=O)c4cc(C)cc(F)c4)c3)cc2c1=O` (single isomer, unassigned) [WX187], the IC50 amounted to 4.84 nM against PI3Kα and 331 nM at PI3Kβ.

As for `CNC(=O)C(C)Cn1cnc2ccc(-c3cnc(OC)c(NS(=O)(=O)c4ccc(F)cc4C)c3)cc2c1=O` (single isomer, unassigned) [WX180], the IC50 on PI3Kα turned out to be 10.2 nM; on PI3Kβ, 411 nM.

For `CNC(=O)C(C)Cn1cnc2ccc(-c3cnc(OC)c(NS(=O)(=O)c4cccc(C)c4F)c3)cc2c1=O` (single isomer, unassigned) [WX220], the figures for the IC50 against PI3Kα and on PI3Kβ were 10.1 nM and 139 nM, respectively.

On to `CNC(=O)[C@@H](C)Cn1cnc2ccc(-c3cnc(OC)c(NS(=O)(=O)c4c(Cl)cccc4Cl)c3)cc2c1=O` [WX207], for which the IC50 against PI3Kα is 0.85 nM; against PI3Kβ it was 20.5 nM.

In the case of `CNC[C@H](C)Cn1cnc2ccc(-c3cnc(OC)c(NS(=O)(=O)c4ccc(F)cc4Cl)c3)cc2c1=O` [R009, reference compound], the IC50 was 10.4 nM against PI3Kα and 108 nM against PI3Kβ.

`CNC(=O)C(C)Cn1cnc2ccc(-c3cnc(OC)c(NS(=O)(=O)c4cccc(C)c4F)c3)cc2c1=O` (single isomer, unassigned) [WX219]: the IC50 was determined as 5.36 nM against PI3Kα and 276 nM against PI3Kβ.

`CNC(=O)C(C)Cn1cnc2ccc(-c3cnc(OC)c(NS(=O)(=O)c4ccc(Cl)cc4C)c3)cc2c1=O` (single isomer, unassigned) [WX218]: the IC50 on PI3Kα was 5.04 nM; at PI3Kβ, 216 nM.

With `CNC(=O)C(C)Cn1cnc2ccc(-c3cnc(OC)c(NS(=O)(=O)c4cc(Cl)c(F)cc4F)c3)cc2c1=O` (single isomer, unassigned) [WX096], the IC50 on PI3Kα came out at 8.51 nM; at PI3Kβ, 175 nM.

As to `CNC(=O)C(C)Cn1cnc2ccc(-c3cnc(OC)c(NS(=O)(=O)c4ccc(F)cc4C(F)(F)F)c3)cc2c1=O` (single isomer, unassigned) [WX195], the IC50 at PI3Kα worked out at 5.58 nM; against PI3Kβ, 327 nM.

Regarding `CNC(=O)C(C)Cn1cnc2ccc(-c3cnc(OC)c(NS(=O)(=O)c4sccc4C)c3)cc2c1=O` (single isomer, unassigned) [WX209], the IC50 on PI3Kα was found to be 4.08 nM; on PI3Kβ, 176 nM.

Regarding `CNC(=O)C(C)Cn1cnc2ccc(-c3cnc(OC)c(NS(=O)(=O)c4cc(C)ccc4Cl)c3)cc2c1=O` (single isomer, unassigned) [WX213], the values for the IC50 at PI3Kα and on PI3Kβ were 4.52 nM and 201 nM, respectively.

Turning to `CNC(=O)[C@H](C)Cn1cnc2ccc(-c3cnc(OC)c(NS(=O)(=O)c4ccc(OC)cc4)c3)cc2c1=O` [WX203], the values for the IC50 against PI3Kα and against PI3Kβ were 12.8 nM and 595 nM, respectively.

`COc1ncc(-c2ccc3ncn(CC(C)(C)C(N)=O)c(=O)c3c2)cc1NS(=O)(=O)c1ccc(F)cc1Cl` [WX020]: the IC50 on PI3Kα worked out at 10.2 nM; on PI3Kβ it was 413 nM.

With `CNC(=O)C(C)Cn1cnc2ccc(-c3cnc(OC)c(NS(=O)(=O)c4ccc(OC)cc4)c3)cc2c1=O` (single isomer, unassigned) [WX204], the IC50 on PI3Kα stood at 22.5 nM; at PI3Kβ, 527 nM.
